Where “and” joins values, the source holds several entries; their conditions need not be identical. Identical values can stand only once. Numbers after ± are expanded uncertainties.
Settings: Liquid, Closed cell (Static) method

CNCCCN [N-methyl-1,3-diaminopropane]
Settings | vapor or sublimation pressure
273 K | 0.089 ± 0.006 kPa
273.15 K | 0.089 ± 0.0062 kPa
283.15 K | 0.204 ± 0.013 kPa
283.37 K | 0.205 ± 0.013 kPa
293.15 K | 0.4319 ± 0.027 kPa
293.47 K | 0.431 ± 0.026 kPa
303.11 K | 0.861 ± 0.019 kPa
303.15 K | 0.8539 ± 0.022 kPa
313.15 K | 1.591 ± 0.022 kPa
313.18 K | 1.607 ± 0.014 kPa
323.15 K | 2.814 ± 0.029 kPa
323.26 K | 2.83 ± 0.021 kPa and 2.828 ± 0.021 kPa
333.15 K | 4.755 ± 0.042 kPa
333.23 K | 4.764 ± 0.034 kPa
333.25 K | 4.764 ± 0.034 kPa
343.15 K | 7.716 ± 0.062 kPa
343.26 K | 7.745 ± 0.053 kPa
343.28 K | 7.742 ± 0.053 kPa
343.3 K | 7.74 ± 0.053 kPa
352.54 K | 11.85 ± 0.078 kPa
353.15 K | 12.08 ± 0.093 kPa
353.24 K | 12.14 ± 0.079 kPa
362.82 K | 18.1 ± 0.12 kPa
362.84 K | 18.11 ± 0.12 kPa
363.15 K | 18.31 ± 0.14 kPa
372.74 K | 26.61 ± 0.17 kPa
372.76 K | 26.61 ± 0.17 kPa
382.84 K | 38.34 ± 0.25 kPa
382.87 K | 38.35 ± 0.25 kPa
392.92 K | 53.96 ± 0.35 kPa
392.95 K | 53.96 ± 0.35 kPa
402.59 K | 73.4 ± 0.47 kPa
402.61 K | 73.41 ± 0.47 kPa
422.46 K | 129.8 ± 0.82 kPa and 129.79 ± 0.82 kPa
422.51 K | 129.84 ± 0.82 kPa
432.4 K | 169.97 ± 1.1 kPa and 170.02 ± 1.1 kPa

CCN(CC)CCCN [N,N-diethylpropane-1,3-diamine]
Settings | vapor or sublimation pressure
263.16 K | 0.014 ± 0.001 kPa
273.05 K | 0.034 ± 0.002 kPa
273.15 K | 0.0338 ± 0.0025 kPa
283.15 K | 0.0768 ± 0.0054 kPa
283.27 K | 0.077 ± 0.005 kPa
293.15 K | 0.1631 ± 0.011 kPa
293.22 K | 0.163 ± 0.01 kPa
303.14 K | 0.326 ± 0.02 kPa
303.15 K | 0.3257 ± 0.021 kPa
303.16 K | 0.325 ± 0.02 kPa
313.15 K | 0.6164 ± 0.016 kPa
313.16 K | 0.616 ± 0.014 kPa
313.18 K | 0.616 ± 0.014 kPa
323.15 K | 1.112 ± 0.029 kPa
323.16 K | 1.114 ± 0.024 kPa and 1.112 ± 0.024 kPa
333.15 K | 1.922 ± 0.023 kPa
333.18 K | 1.94 ± 0.016 kPa
343.15 K | 3.199 ± 0.031 kPa
343.21 K | 3.234 ± 0.024 kPa
353.15 K | 5.143 ± 0.044 kPa
353.19 K | 5.161 ± 0.036 kPa and 5.162 ± 0.036 kPa
363.15 K | 8.017 ± 0.064 kPa
363.25 K | 7.965 ± 0.053 kPa

CN(C)CCCN [N,N-dimethyl-1,3-propanediamine]
Settings | vapor or sublimation pressure
273.04 K | 0.183 ± 0.011 kPa
283.06 K | 0.381 ± 0.023 kPa
283.15 K | 0.3844 ± 0.024 kPa
293.13 K | 0.749 ± 0.016 kPa
293.15 K | 0.7536 ± 0.02 kPa
303.15 K | 1.397 ± 0.02 kPa
303.16 K | 1.396 ± 0.013 kPa
313.15 K | 2.464 ± 0.027 kPa
313.21 K | 2.478 ± 0.019 kPa
323.15 K | 4.162 ± 0.038 kPa
323.27 K | 4.186 ± 0.03 kPa
333.15 K | 6.763 ± 0.056 kPa
333.32 K | 6.828 ± 0.047 kPa
343.15 K | 10.61 ± 0.083 kPa
343.37 K | 10.73 ± 0.071 kPa and 10.72 ± 0.071 kPa
353.15 K | 16.15 ± 0.12 kPa
353.41 K | 16.31 ± 0.11 kPa
363.15 K | 23.9 ± 0.17 kPa
363.44 K | 24.1 ± 0.15 kPa

— the NIST ThermoML archive (doi:10.1016/j.jct.2015.08.023)
